Data on 5 compounds can be found in ChEMBL document CHEMBL4619795, “Establishing the Structure-Activity Relationship of Daptomycin” (ACS Med Chem Lett, 2020).

What all share (assay type): functional
The subject of assay [1] is Enterococcus faecalis. The experiment in a line: Antibacterial activity against Streptococcus faecalis assessed as bacterial growth inhibition in presence of 50 ug/ml calcium ions by CLSI protocol based broth microdilution method.
In assay [2] the test system is Staphylococcus aureus. Kind of assay: Antibacterial activity against methicillin-resistant Staphylococcus aureus 14 assessed as bacterial growth inhibition in presence of 50 ug/ml calcium ions by CLSI protocol based broth microdilution method.
The subject of assay [3] is Enterococcus faecalis. The experiment in a line: Antibacterial activity against Enterococcus faecalis ATCC 29212 assessed as bacterial growth inhibition in presence of 50 ug/ml calcium ions by CLSI protocol based broth microdilution method. For orientation: Broth dilution looks for growth in wells or tubes with falling amounts of substance.
The test system of assay [4] is Staphylococcus aureus. The experiment in a line: Antibacterial activity against methicillin-resistant Staphylococcus aureus 11 assessed as bacterial growth inhibition in presence of 50 ug/ml calcium ions by CLSI protocol based broth microdilution method.
In assay [5] the test system is Staphylococcus aureus. The experiment in a line: Antibacterial activity against Staphylococcus aureus ATCC 29213 assessed as bacterial growth inhibition in presence of 50 ug/ml calcium ions by CLSI protocol based broth microdilution method.
Assay [6] deals with Staphylococcus aureus. The experiment in a line: Antibacterial activity against methicillin-resistant Staphylococcus aureus 86 assessed as bacterial growth inhibition in presence of 50 ug/ml calcium ions by CLSI protocol based broth microdilution method.
In assay [7] the test system is Staphylococcus aureus. The experiment in a line: Antibacterial activity against methicillin-resistant Staphylococcus aureus 88 assessed as bacterial growth inhibition in presence of 50 ug/ml calcium ions by CLSI protocol based broth microdilution method.
Assay [8] has as its system Enterococcus. Kind of assay: Antibacterial activity against Enterococcus 60 assessed as bacterial growth inhibition in presence of 50 ug/ml calcium ions by CLSI protocol based broth microdilution method.
Assay [9] concerns Enterococcus. The experiment in a line: Antibacterial activity against Enterococcus 6 assessed as bacterial growth inhibition in presence of 50 ug/ml calcium ions by CLSI protocol based broth microdilution method.

A word on the MIC: it is the lowest concentration that inhibits growth of the organism. For the compound `C#Cc1ccc(C(=O)N[C@@H](Cc2c[nH]c3ccccc23)C(=O)N[C@@H](CC(N)=O)C(=O)N[C@@H](CC(=O)O)C(=O)N[C@@H]2C(=O)NCC(=O)N[C@@H](CCCN)C(=O)N[C@@H](CC(=O)O)C(=O)N[C@H](C)C(=O)N[C@@H](CC(=O)O)C(=O)NCC(=O)N[C@H](CO)C(=O)N[C@@H]([C@@H](C)CC(=O)O)C(=O)N[C@@H](CC(=O)c3ccccc3N)C(=O)O[C@@H]2C)cc1`, the MIC with Enterococcus faecalis [1], with Staphylococcus aureus [2], with Enterococcus faecalis [3], with Staphylococcus aureus [4], in the assay on Staphylococcus aureus [5] and in the assay on Staphylococcus aureus [6] was at least 32 µg/mL throughout. The minimal inhibitory concentration (MIC) in the assay with Staphylococcus aureus [7], with Enterococcus [8] and with Enterococcus [9] was at least 32 µg/mL in each case.

Consider `CCCCCCCCCC(=O)N[C@@H](C)C(=O)N[C@@H](CC(N)=O)C(=O)N[C@@H](CC(=O)O)C(=O)N[C@@H]1C(=O)NCC(=O)N[C@@H](CCCN)C(=O)N[C@@H](CC(=O)O)C(=O)N[C@H](C)C(=O)N[C@@H](CC(=O)O)C(=O)NCC(=O)N[C@H](CO)C(=O)N[C@@H]([C@@H](C)CC(=O)O)C(=O)N[C@@H](CC(=O)c2ccccc2N)C(=O)O[C@@H]1C`, for which the MIC with Enterococcus faecalis [1] was at least 64 µg/mL; with Staphylococcus aureus [2], at least 32 µg/mL; in the assay with Enterococcus faecalis [3], at least 64 µg/mL; with Staphylococcus aureus [4], at least 32 µg/mL; with Staphylococcus aureus [5], at least 32 µg/mL; in the assay on Staphylococcus aureus [6], at least 32 µg/mL. Besides, the MIC in the assay with Staphylococcus aureus [7] was at least 32 µg/mL; with Enterococcus [8], at least 64 µg/mL; with Enterococcus [9], at least 64 µg/mL.

With `CCCCCCCCCC(=O)N[C@@H](Cc1c[nH]c2ccccc12)C(=O)N[C@@H](CC(N)=O)C(=O)N[C@@H](CC(=O)O)C(=O)N[C@@H]1C(=O)NCC(=O)N[C@@H](CCCN)C(=O)N[C@@H](CCC(=O)O)C(=O)N[C@H](C)C(=O)N[C@@H](CCC(=O)O)C(=O)NCC(=O)N[C@H](CO)C(=O)N[C@@H]([C@@H](C)CC(=O)O)C(=O)N[C@@H](CC(=O)c2ccccc2N)C(=O)O[C@@H]1C`, the MIC in the assay on Enterococcus faecalis [1], in the assay on Staphylococcus aureus [2], in the assay on Enterococcus faecalis [3], with Staphylococcus aureus [4], in the assay with Staphylococcus aureus [5] and in the assay with Staphylococcus aureus [6] was at least 32 µg/mL each time. Moreover, the MIC in the assay on Staphylococcus aureus [7], in the assay with Enterococcus [8] and in the assay on Enterococcus [9] was at least 32 µg/mL in each case.

As for `CCCCCCCCCC(=O)N[C@@H](Cc1c[nH]c2ccccc12)C(=O)N[C@@H](CC(N)=O)C(=O)N[C@@H](CC(=O)O)C(=O)N[C@@H]1C(=O)NCC(=O)N[C@@H]([C@@H](C)CC)C(=O)N[C@@H](CC(=O)O)C(=O)N[C@H](C)C(=O)N[C@@H](CC(=O)O)C(=O)NCC(=O)N[C@H](CO)C(=O)N[C@@H]([C@@H](C)CC(=O)O)C(=O)N[C@@H](CC(=O)c2ccccc2N)C(=O)O[C@@H]1C`, the MIC in the assay on Enterococcus faecalis [1] was at least 64 µg/mL; with Staphylococcus aureus [2], at least 32 µg/mL; with Enterococcus faecalis [3], at least 64 µg/mL; in the assay with Staphylococcus aureus [4], at least 32 µg/mL; in the assay with Staphylococcus aureus [5], 8 µg/mL; with Staphylococcus aureus [6], 8 µg/mL. The minimum inhibitory concentration (MIC) in the assay with Staphylococcus aureus [7] is 4 µg/mL; in the assay on Enterococcus [8], 32 µg/mL; in the assay with Enterococcus [9] it was at least 64 µg/mL.

Consider `C[C@H]1NC(=O)[C@H](CC(=O)O)NC(=O)[C@H](CCCN)NC(=O)CNC(=O)[C@@H](NC(=O)[C@H](CC(=O)O)NC(=O)[C@H](CC(N)=O)NC(=O)[C@H](Cc2c[nH]c3ccccc23)NC(=O)c2ccc(C#Cc3ccccc3)cc2)[C@@H](C)OC(=O)[C@H](CC(=O)c2ccccc2N)NC(=O)[C@H]([C@@H](C)CC(=O)O)NC(=O)[C@@H](CO)NC(=O)CNC(=O)[C@H](CC(=O)O)NC1=O`, for which the MIC with Enterococcus faecalis [1] came out at 1 µg/mL; with Staphylococcus aureus [2] it was 0.5 µg/mL; with Enterococcus faecalis [3] it was 8 µg/mL; with Staphylococcus aureus [4], 0.25 µg/mL; with Staphylococcus aureus [5], 0.5 µg/mL; in the assay with Staphylococcus aureus [6], 0.5 µg/mL. The figures for the MIC with Staphylococcus aureus [7], in the assay on Enterococcus [8] and in the assay on Enterococcus [9] were 0.5 µg/mL, 2 µg/mL and 8 µg/mL, respectively.
